Data from publication PMC4706618, “Comparison of bactericidal and cytotoxic activities of trichogin analogs” (Data in Brief, 2015).
Values after ≈ are worked out from the molar mass of the structure shown. Read-outs that look alike come from different tables or passages of the source. Non-standard residues stand in square brackets, D forms with d. Residues, ends and D or L forms follow the SMILES beside them. *: point of attachment. Leu(ol) = CC(C)C[C@H](N)CO; Octanoyl = CCCCCCCC(=O)*; Aib = CC(C)(N)C(=O)O

How the values were obtained:
P. aeruginosa ATCC 25668 [1] = assay type: cell-based, Pseudomonas aeruginosa; conditions: after 24 h at 37 °C, broth microdilution in LB, 5×10^5 CFU/ml; ±SE, N≥4; peptide dose range 0–64 µM
Procedure: (§1) E. coli ATCC 25922, the methicillin-resistant strain of S. aureus, ATCC BAA-44, P. aeruginosa ATCC 25668 and S. epidermidis ATCC 700565 was a kind gift of Prof. Elena Reddi (Dept. of Biology, University of Padova, Italy). Cultures were maintained in Luria Bertani (LB) agar. MICs (Minimal inhibitory concentrations) of the peptides were determined using the broth microdilution method. Two-fold serial dilutions of each peptide, from 1 to 64 μM, were prepared in LB and 50 μl per well were arranged in sterile 96-well plates (Falcon). Then, an aliquot of bacterial cell suspension was added to each well, at a final concentration of 5×10^5 CFU/ml.

[2] = test system: human cells (lymphocytes, PMNs, monocytes, HL60, HeLa, A431, A549, CCD34Lu); assay: Cytotoxicity on human cells, MTS reduction and LDH release; assay type: cell-based; conditions: 24 h, MTS/LDH EC50, all tested cells; in words
Procedure: To monitor the possible differential cytocidal effect of trichogin and its analogs on human cells (healthy and cancer cells, non-leukocytes and leukocytes), we incubated the peptides with (i) primary human leukocytes (lymphocytes, PMNs and monocytes), freshly isolated from blood of healthy donors (ii) the monocytes-like HL60 cell line from human myeloid leukemia, and (iii) three tumor-derived non-leukocyte cells lines: HeLa ([…]), A431 (human epidermoid carcinoma) and A549 (human lung carcinoma) and the in vitro stabilized line CCD34Lu (from human normal lung).
HeLa, A431 and CCD34-Lu cells were maintained in DMEM medium (Gibco), A549 in F12 medium (Gibco) and HL60 in RPMI medium (Gibco), supplemented with 10% FCS (Euroclone) and antibiotics (penicillin and streptomycin, 100 U/ml, Invitrogen) at 37 °C in a humidified atmosphere containing 5% (v/v) CO2; cells were split every 2–3 days. Human monocytes, polymorphonuclear leukocytes (PMNs) and lymphocytes were purified from buffy coats of healthy donors, kindly provided by the Centro Immunotrasfusionale, Hospital of Padova. Briefly, for monocyte purification, peripheral blood mononuclear cells (PBMC) were isolated from buffy coats of healthy donors by density gradient centrifugation on Ficoll-Paque Plus (GE Health care), which density is optimized for the isolation of mononuclear cells. Separate monocyte and T-cell fractions were obtained from PBMCs by Percoll density gradient centrifugation (GE Health care); residual lymphocytes were removed by incubation in 2% fetal calf serum (FCS) RPMI at 37 °C and subsequently washed to eliminate non adherent cells. Unless otherwise specified, cells were kept at 37 °C in a humidified atmosphere containing 5% (v/v) CO2 in RPMI-1640 supplemented with 10% FCS. For PMNs purification, the pellet of cells obtained after the centrifugation on Ficoll gradient was subjected to dextran erythrocytes precipitation; residual erythrocytes were removed by hypotonic lysis in 155 mM NH4Cl, 10 mM KHCO3, and […] Na2EDTA at pH 7.4 and cells were cultured in RPMI medium, supplemented with 10% FCS. For lymphocytes preparation, buffy coats were incubated with 50 μl/ml of Rosette Sep® Human T Cell Enrichment Cocktail (StemCell Technologies). Blood was then centrifuged over a Ficoll gradient and cells were cultured in RPMI medium, supplemented with 10% FCS.
(§2) Twenty-four hours before the experiment, A431, HeLa, A549 and CC34-Lu cells were detached by means of trypsin treatment (Gibco), counted and seeded onto a 96 wells/plate (8×10^3 cells/well, Falcon). After purification, monocytes were seeded onto a 96 wells/plate (2×10^6/well) and left to adhere to the plastic; then cells were immediately treated with stimuli. PMNs and lymphocytes (2×10^6 cells/well) and HL60 cells (40×10^3) were seeded onto cell plates and subsequently treated. Different peptides were diluted in culture medium (from 20 μM to 1 μM) and added to the cells. As a […] control cells were treated with medium without stimuli. Twenty-four hours after treatment, the cell supernatant was collected for subsequent assay (LDH assay) and cells were tested using a CellTiter 96® AQueous One Solution Reagent (Promega). Plates were read with an ELISA reader (Amersham Biosciences) at 492 nm. Data were expressed as % of absorbance value compared to untreated cells (assumed as 100% viable). Alternatively, the EC50 (the concentration of drug where 50% of cells died) was calculated for each peptide and each kind of tested cell.
(§3) 50 μl of the cell supernatant was tested with a CytoTox 96® Non-Radioactive Cytotoxicity Assay kit (Promega). EC50 (the concentration of drug that induced the lysis of 50% of the total cell number) was calculated for each peptide and each kind of tested cell.

HeLa cells [3] = assay: Cytotoxicity on HeLa cells, MTS/LDH; assay type: cell-based, human; conditions: 24 h, in words
Procedure: as §2, §3

[4] = test system: S. aureus, ATCC BAA-44 (methicillin-resistant strain); assay type: cell-based, Staphylococcus aureus; conditions: after 24 h at 37 °C, broth microdilution in LB, 5×10^5 CFU/ml; ±SE, N≥4; peptide dose range 0–64 µM
Procedure: as §1

[5] = test system: S. epidermidis ATCC 700565; assay type: cell-based, Staphylococcus epidermidis; conditions: after 24 h at 37 °C, broth microdilution in LB, 5×10^5 CFU/ml; ±SE, N≥4; peptide dose range 0–64 µM
Procedure: as §1

[6] = test system: Gram^− and Gram^+ bacteria; assay: Antibacterial activity, all strains taken together; assay type: cell-based; conditions: additional U at position 6 or U1 replaced with L; in words
Procedure: as §1

E. coli ATCC 25922 [7] = assay type: cell-based, Escherichia coli; conditions: after 24 h at 37 °C, broth microdilution in LB, 5×10^5 CFU/ml; ±SE, N≥4; peptide dose range 0–64 µM
Procedure: as §1

HeLa cells [8] = assay: Propidium iodide / Annexin V assay (FACS); assay type: cell-based, human; conditions: 18 h treatment, up to 20 μM, in words
Procedure: HeLa cells were seeded on 24-wells plastic trays (Falcon) the day before the experiment, while HL60 were used directly. Cells were treated for 18 h with different trichogin analogs (up to 20 μM); then they were washed with PBS, detached with trypsin (in the case of HeLa cells), centrifuged at 200g for 5 min, suspended in 50 μl of incubation buffer and incubated for 15 min at 37 °C with 2 μl of Annexin-V-Fluos (Roche). Cells were finally diluted in 250 μl of the incubation buffer and 15 μl of Propidium Iodide (Sigma) were added to each sample just before the acquisition with FACSCanto® (Beckton Dickinson). Percentage of healthy (Annexin V^−/PI^−), apoptotic (Annexin V^+/PI^−), oncotic (Annexin V^−/PI^+) and late apoptotic/abortive oncotic (Annexin V^+/PI^+) cells of the total (10^6 cells) was calculated using FACSDiva Software.

E. coli ATCC 25922 [9] = conditions: after 24 h; ±SE; § data for comparison; ref [6]; cited from earlier work
Procedure: Table 2 MICs (μM±SE; N≥4; peptides dose range: 0–64 µM) after 24 h against two Gram^+ and two Gram^− bacterial strains (§ indicates data from for comparison). | column: E. coli

Erythrocytes = assay: Hemolytic activity (hemoglobin release); assay type: cell-based; conditions: erythrocytes treated 24 h, hemoglobin release read spectrophotometrically; in words
Procedure: Fig. 7 Hemolytic activity of trichogin and its analogs. Erythrocytes were treated for 24 h with different concentration of peptides, centrifuged and hemoglobin release was measured spectrophotometrically. Hemolysis is expressed as percentage relative to positive control (erythrocytes treated with distilled water). § Indicates data from for comparison.

[10] = test system: Gram^− and Gram^+ bacteria; conditions: both Gram^− and Gram^+ bacteria; ref Tavano et al., 2015 [6]; cited from earlier work
Excerpt: (§4) Peptaibiotics are a group of membrane active peptides of fungal origin. They typically contain α-aminoisobutyric acid (Aib; 1-letter code, U) and other non-coded residues (Toniolo and Brückner, 2009; Neumann et al., 2015; Benedett et al., 1982), [2], [3] stabilizing their helical structure. Peptaibols are peptaibiotics carrying a 1, 2-aminoalcohol at the C-terminus. When a fatty acid chain (of 8–10 carbon atoms) is present at their N-terminus, they are called lipopeptaibols (Toniolo et al., 2001; Degenkolb et al., 2003), [5]. We found (Tavano et al., 2015) that the lipo ...

[11] = test system: human cells (lymphocytes, PMNs, monocytes, HL60, HeLa, A431, A549, CCD34Lu); conditions: tumor and healthy human cells; ref Tavano et al., 2015 [6]; read-out: EC50 for killing tumor and healthy human cells; cited from earlier work
Excerpt: as §4

P. aeruginosa ATCC 25668 [12] = conditions: after 24 h; ±SE; § data for comparison; ref [6]; cited from earlier work
Procedure: Table 2 MICs (μM±SE; N≥4; peptides dose range: 0–64 µM) after 24 h against two Gram^+ and two Gram^− bacterial strains (§ indicates data from for comparison). | column: P. aeruginosa

[13] = test system: S. aureus, ATCC BAA-44 (methicillin-resistant strain); conditions: after 24 h; ±SE; § data for comparison; ref [6]; cited from earlier work
Procedure: Table 2 MICs (μM±SE; N≥4; peptides dose range: 0–64 µM) after 24 h against two Gram^+ and two Gram^− bacterial strains (§ indicates data from for comparison). | column: S. aureus

[14] = test system: S. epidermidis ATCC 700565; conditions: after 24 h; ±SE; § data for comparison; ref [6]; cited from earlier work
Procedure: Table 2 MICs (μM±SE; N≥4; peptides dose range: 0–64 µM) after 24 h against two Gram^+ and two Gram^− bacterial strains (§ indicates data from for comparison). | column: S. epidermis

Row | Molecule | MIC P. aeruginosa (P. aeruginosa ATCC 25668 [1]) | cytotoxicity compared with trichogin or the corresponding analog [2] | toxicity to HeLa cells compared with trichogin (HeLa cells [3]) | MIC S. aureus [4] | MIC S. epidermis [5] | antibacterial activity compared with the K-containing analogs [6] | MIC E. coli (E. coli ATCC 25922 [7]) | type and extent of HeLa cell death, PI/Annexin V labeling (HeLa cells [8]) | MIC E. coli (E. coli ATCC 25922 [9]) | hemolytic effect (Erythrocytes) | antibacterial effects (none up to the stated concentration) [10] | EC50 [11] | MIC P. aeruginosa (P. aeruginosa ATCC 25668 [12]) | MIC S. aureus [13] | MIC S. epidermis [14]
1 | CCCCCCCC(=O)NC(C)(C)C(=O)NCC(=O)N[C@@H](CC(C)C)C(=O)NC(C)(C)C(=O)N[C@@H](CCCCN)C(=O)NC(C)(C)C(=O)N[C@@H](CC(C)C)C(=O)NC(C)(C)C(=O)NCC(=O)N[C@H](C(=O)N[C@H](CO)CC(C)C)[C@@H](C)CC [K5U6] (Octanoyl-[Aib]GL[Aib]K[Aib]L[Aib]GI[Leu(ol)]) | >64 µM | increased cytotoxicity | significantly more effective in killing HeLa cells | 3.8 ± 2.4 µM (≈ 4.43 µg/mL) | 2.4 ± 0.9 µM (≈ 2.8 µg/mL) | failed to increase the antibacterial activity | >64 µM | predominantly a late apoptotic phenotype but also significant necrosis | – | – | – | – | – | – | –
2 | CCCCCCCC(=O)N[C@@H](CC(C)C)C(=O)NCC(=O)N[C@@H](CC(C)C)C(=O)NC(C)(C)C(=O)NCC(=O)NCC(=O)N[C@@H](CC(C)C)C(=O)NC(C)(C)C(=O)NCC(=O)N[C@H](C(=O)N[C@H](CO)CC(C)C)[C@@H](C)CC [L1] (Octanoyl-LGL[Aib]GGL[Aib]GI[Leu(ol)]) | >64 µM | weakly affected | – | 32 ± 0 µM (≈ 35 µg/mL) | >64 µM | – | >64 µM | as effective as trichogin in killing HeLa cells | – | – | – | – | – | – | –
3 | Oc-UGLUGGLUGILol [GA IV, trichogin GA IV, lipopeptaibol trichogin, Oc-UGLUGGLUGILol] | – | – | – | – | – | – | – | – | >64 µM | weakly hemolytic | > 64 µM | 4 to 5 µM | >64 µM | >64 µM | >64 µM
